In paper PMC12186697, “HypoxyStat, a small-molecule form of hypoxia therapy that increases oxygen-hemoglobin affinity” (Cell, 2025):

Assay: Mouse oral pharmacokinetics (blood and plasma, LC-MS/MS)
Type: in vivo, C57BL/6 mice
Description: We conducted a PK/PD study to determine the optimal dosing strategy for HypoxyStat in a chronic setting. First we administered a single 10 mg/kg oral dose of HypoxyStat to adult C57BL/6 mice and monitored its concentration in blood and plasma over a 10-day period (Figure 3A, left). Next, we administered HypoxyStat at doses of 20, 60, 200, and 600 mg/kg via oral gavage three times per week for 12 days. […] Based on blood levels of HypoxyStat and Hb measured on day 12, we estimated Hb occupancy to be 29.3% at 200 mg/kg and 41.4% at 600 mg/kg (Figure S1).[27]
Mouse plasma and whole blood samples were processed as outlined below. An equal volume of 3% aqueous formic acid in water was added to whole blood and plasma samples which were then vortexed at 600 rpm for 60 minutes at room temperature. Internal standard solution (acetonitrile containing 200 nM chrysin) was then added to the samples. They were then vortexed and centrifuged for 5 minutes at 4100 rpm and 4°C. Diluted extracts were injected into a Sciex 5500 LC-MS/MS system operated in positive mode for analysis. A Waters Acquity BEH C18 (50 x 2 mm, […]) UPLC column was used with Mobile Phases A (water:acetonitrile:formic acid [95:5:0.1, v:v:v]) and B (methanol:acetonitrile:formic acid [50:50:0.1, v:v:v]) to separate analytes. Multiple reaction monitoring transitions of 368/230 and 255/153 were used for HypoxyStat and chrysin, respectively.

Question: For `O=Cc1ccccc1C(=O)N1CCCC[C@H]1COc1cccc(O)c1C=O` [HypoxyStat], which “concentration within red blood cells” value (20, 60, 200 and 600 mg/kg oral gavage three times per week for 12 days) is on record?
Answer: The value was “dose-dependent increase”.

Question: What about the Cmax (C57BL/6, in vivo, oral, 10 mg/kg, Figure 2A, mouse) of the same compound?
Answer: Its Cmax is 1590 nM.

Question: And the half-life (mouse, in vivo, 10 mg/kg oral gavage, C57BL/6 mice, read-out: effective half-life (Mouse PO half-life) (converted))?
Answer: Its half-life is 121 h.

Question: And the blood plasma ratio at 3 days (mouse, whole blood and plasma, 10 mg/kg oral gavage, C57BL/6 mice, 3 days post dosing)?
Answer: The blood plasma ratio at 3 days was 396.
